According to ChEMBL document CHEMBL1201862, “PubChem BioAssay data set” (2004):
Activity calls are given as the source filed them.

Legend:
HEK293 = experiment: inhibitors of LMP1-driven NF-kB reporter, dose response, cell-based, HEK293, luciferase, cherry-pick (AID 588343); assay type: functional; conditions: Homo sapiens
Nonstructural protein 1 = Nonstructural protein 1 (Influenza A virus, UniProt Q194T2); assay type: functional, Influenza A virus (A/California/07/2009(H1N1))
Cytochrome P450 3A4 = Cytochrome P450 3A4 (Homo sapiens, UniProt P08684);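 note: CYP3A4 tested as one member of a cytochrome P450 panel screen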
Chain of Cytochrome P450 3A4 (P08684 whole entry, the tested form may be a part): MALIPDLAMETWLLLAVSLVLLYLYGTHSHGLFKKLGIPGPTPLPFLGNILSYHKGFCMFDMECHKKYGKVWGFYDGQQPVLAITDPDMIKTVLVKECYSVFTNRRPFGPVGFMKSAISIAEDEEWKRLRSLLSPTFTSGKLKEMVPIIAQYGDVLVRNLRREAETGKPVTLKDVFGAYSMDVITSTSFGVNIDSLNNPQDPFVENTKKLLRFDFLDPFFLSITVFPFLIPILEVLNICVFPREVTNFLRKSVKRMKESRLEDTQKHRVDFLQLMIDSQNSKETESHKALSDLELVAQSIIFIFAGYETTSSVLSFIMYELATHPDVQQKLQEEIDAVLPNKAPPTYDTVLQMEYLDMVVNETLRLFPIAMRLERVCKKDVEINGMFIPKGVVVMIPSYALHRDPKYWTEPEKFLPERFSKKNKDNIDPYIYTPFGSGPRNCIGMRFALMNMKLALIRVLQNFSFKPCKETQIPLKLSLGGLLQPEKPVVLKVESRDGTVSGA

[1] = target: T1, Carboxy-terminal domain RNA polymerase II polypeptide A small phosphatase 1 (Homo sapiens, UniProt Q9GZU7); experiment: inhibitors of CTDSP1, concentration-response testing, biochemical assay, absorbance-based, actives from ultra-high-throughput screening (AID 540297); assay type: functional
T1 sequence (Q9GZU7 whole entry): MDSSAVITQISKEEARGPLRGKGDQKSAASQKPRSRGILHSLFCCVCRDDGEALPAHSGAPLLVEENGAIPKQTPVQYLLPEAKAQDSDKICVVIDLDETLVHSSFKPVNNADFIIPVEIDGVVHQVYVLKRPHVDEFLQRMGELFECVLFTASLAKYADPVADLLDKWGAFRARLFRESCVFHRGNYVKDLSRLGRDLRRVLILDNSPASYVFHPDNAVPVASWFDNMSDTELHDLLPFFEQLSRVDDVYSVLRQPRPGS

[2] = inhibitors of firefly luciferase expression or activity, dose response, H4 neuroglioma cells, luminescence (AID 1990); assay type: functional, cell-based
[3] = Luminescence Cell-Based Dose Response HTS to Identify Inhibitors of 5'UTR Stem-Loop Driven Prion Protein mRNA Translation in H4 Neuroglioblastoma Cells. [Related pubchem assays: 1827 (Project Summary), 1813 (Primary HTS)]; assay type: functional
[4] = inhibitors of SNCA 5'UTR-driven reporter translation, confirmation, H4 neuroglioma cells, luminescence (AID 1988); assay type: functional, cell-based
[5] = Vero E6 cell cytotoxicity, dose response, cytotoxicity control for non-replicating M. tuberculosis project, secondary assay (AID 492998); assay type: functional, VeroE6; conditions: Vero C1008
cells = assay type: functional
[6] = inhibitors of intracellular T. cruzi replication, confirmation, NIH3T3 host cells, beta-gal luminescence (AID 2044); assay type: functional, cell-based;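 note: intracellular parasites grown in NIH/3T3 mouse fibroblasts as host cells; luminescent beta-galactosidase reporter signal from transgenic T. cruzi replicating inside host cells; inhibitors lower the luminescence signal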
[7] = cytotoxicity toward NIH3T3 fibroblasts, dose response, counter-screen, cell-based, ATP luminescence, mouse fibroblasts (AID 2010); assay type: functional;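 note: cells exposed to compound for about 90 hours before reading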
[8] = target: Heat shock protein HSP 90-alpha (Homo sapiens, UniProt P07900); assay type: functional, organism-based
[9] = target: T2, Microphthalmia-associated transcription factor (Homo sapiens, UniProt O75030); experiment: TRPM1 promoter luciferase signal decrease, dose response, MITF inhibitor project, cell-based, SK-MEL-5, cherry-picked, set 3 (AID 493073); assay type: functional
T2 sequence (O75030 whole entry): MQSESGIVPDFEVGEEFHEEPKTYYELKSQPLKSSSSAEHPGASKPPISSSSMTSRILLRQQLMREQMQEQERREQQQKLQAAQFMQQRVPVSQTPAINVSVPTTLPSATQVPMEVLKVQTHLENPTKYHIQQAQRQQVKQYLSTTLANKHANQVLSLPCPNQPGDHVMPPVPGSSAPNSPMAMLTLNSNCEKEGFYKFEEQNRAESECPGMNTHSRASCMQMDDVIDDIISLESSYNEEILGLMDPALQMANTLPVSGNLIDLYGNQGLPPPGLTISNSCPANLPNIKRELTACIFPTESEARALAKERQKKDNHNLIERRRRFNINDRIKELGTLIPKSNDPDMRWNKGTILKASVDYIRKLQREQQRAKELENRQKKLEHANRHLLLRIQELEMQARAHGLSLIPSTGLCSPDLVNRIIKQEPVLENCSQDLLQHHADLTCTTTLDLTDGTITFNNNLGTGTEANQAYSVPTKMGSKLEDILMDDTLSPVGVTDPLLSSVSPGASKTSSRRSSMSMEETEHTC

[10] = target: T3, High affinity choline transporter 1 (Homo sapiens, UniProt Q9GZV3); experiment: CHT inhibitors, dose response, cell-based, 5-point CRC, membrane potential dye (AID 504840); assay type: functional
T3 sequence (Q9GZV3 whole entry): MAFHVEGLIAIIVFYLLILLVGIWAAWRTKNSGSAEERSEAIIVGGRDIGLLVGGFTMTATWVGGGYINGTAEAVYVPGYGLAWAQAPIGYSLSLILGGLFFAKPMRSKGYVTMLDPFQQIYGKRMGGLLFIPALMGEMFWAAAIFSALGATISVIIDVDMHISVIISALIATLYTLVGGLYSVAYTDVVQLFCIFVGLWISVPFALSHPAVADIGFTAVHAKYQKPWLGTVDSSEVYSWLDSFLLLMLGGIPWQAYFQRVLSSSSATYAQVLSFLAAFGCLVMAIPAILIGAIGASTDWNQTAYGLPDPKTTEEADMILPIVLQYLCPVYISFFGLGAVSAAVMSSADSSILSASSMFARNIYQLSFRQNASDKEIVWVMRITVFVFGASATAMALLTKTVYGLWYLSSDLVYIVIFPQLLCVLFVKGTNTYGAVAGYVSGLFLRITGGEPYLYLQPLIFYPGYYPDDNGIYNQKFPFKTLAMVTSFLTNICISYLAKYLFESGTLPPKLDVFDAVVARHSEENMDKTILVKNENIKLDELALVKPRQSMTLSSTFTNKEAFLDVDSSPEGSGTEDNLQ

Cytochrome P450 1A2 = target: T4, Cytochrome P450 1A2 (Homo sapiens, UniProt P05177);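 note: PubChem cytochrome P450 panel assay, CYP1A2 panel member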
T4 sequence (P05177 whole entry): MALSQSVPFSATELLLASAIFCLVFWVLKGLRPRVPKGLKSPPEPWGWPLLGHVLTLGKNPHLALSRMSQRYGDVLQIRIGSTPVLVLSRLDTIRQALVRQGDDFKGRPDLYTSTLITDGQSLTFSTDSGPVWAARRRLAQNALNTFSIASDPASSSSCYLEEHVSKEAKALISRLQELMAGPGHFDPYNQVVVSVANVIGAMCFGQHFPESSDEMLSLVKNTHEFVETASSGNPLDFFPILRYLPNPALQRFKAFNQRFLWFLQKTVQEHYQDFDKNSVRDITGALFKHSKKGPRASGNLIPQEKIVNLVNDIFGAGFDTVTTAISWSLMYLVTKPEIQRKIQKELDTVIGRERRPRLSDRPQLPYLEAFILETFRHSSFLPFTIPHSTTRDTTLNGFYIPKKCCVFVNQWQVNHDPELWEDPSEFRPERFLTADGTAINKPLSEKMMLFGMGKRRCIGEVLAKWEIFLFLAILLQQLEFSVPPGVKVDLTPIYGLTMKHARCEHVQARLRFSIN

[11] = target: T5, Short transient receptor potential channel 4 (Mus musculus, UniProt Q9QUQ5); experiment: mouse TRPC4 channel activators, dose response, cell-based, HEK293 TRPC4/mu-opioid, Fluo-4 calcium (AID 434937); assay type: functional
T5 sequence (Q9QUQ5 whole entry): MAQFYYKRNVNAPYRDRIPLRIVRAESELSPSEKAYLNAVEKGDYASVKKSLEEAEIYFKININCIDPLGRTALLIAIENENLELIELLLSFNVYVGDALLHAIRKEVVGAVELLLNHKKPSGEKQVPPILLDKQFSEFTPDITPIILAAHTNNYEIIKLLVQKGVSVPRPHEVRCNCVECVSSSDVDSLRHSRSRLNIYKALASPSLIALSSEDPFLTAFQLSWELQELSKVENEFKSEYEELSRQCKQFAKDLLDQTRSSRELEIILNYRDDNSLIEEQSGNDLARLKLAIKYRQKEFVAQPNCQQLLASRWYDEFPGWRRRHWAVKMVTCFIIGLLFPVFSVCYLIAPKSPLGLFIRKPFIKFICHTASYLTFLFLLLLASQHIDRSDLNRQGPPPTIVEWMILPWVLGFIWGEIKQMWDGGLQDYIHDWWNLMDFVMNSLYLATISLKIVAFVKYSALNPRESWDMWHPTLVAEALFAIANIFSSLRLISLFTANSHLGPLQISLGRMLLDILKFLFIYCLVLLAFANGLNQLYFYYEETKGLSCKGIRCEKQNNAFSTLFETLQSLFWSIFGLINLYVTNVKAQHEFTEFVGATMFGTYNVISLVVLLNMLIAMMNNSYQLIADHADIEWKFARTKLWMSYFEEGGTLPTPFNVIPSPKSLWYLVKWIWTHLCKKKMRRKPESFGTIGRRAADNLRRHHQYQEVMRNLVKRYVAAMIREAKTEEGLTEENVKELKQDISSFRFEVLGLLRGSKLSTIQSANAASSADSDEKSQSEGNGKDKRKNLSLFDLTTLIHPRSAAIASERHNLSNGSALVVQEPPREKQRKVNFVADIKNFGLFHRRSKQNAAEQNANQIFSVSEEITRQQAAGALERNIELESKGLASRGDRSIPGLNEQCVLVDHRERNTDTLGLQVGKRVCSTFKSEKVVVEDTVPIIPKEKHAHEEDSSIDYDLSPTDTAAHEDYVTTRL

[12] = target: T6, Heat shock factor protein 1 (Mus musculus, UniProt P38532); experiment: inhibition of MG132-induced HSE-luciferase signal, confirmation, cell-based, NIH3T3, luminescence, dose retest (AID 2382); assay type: functional;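 note: NIH3T3 fibroblasts with HSF1-driven luciferase reporter stressed by proteasome inhibitor MG132; luminescence from HSF1-driven luciferase expression after 8 hours of MG132 stress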
T6 sequence (P38532 whole entry): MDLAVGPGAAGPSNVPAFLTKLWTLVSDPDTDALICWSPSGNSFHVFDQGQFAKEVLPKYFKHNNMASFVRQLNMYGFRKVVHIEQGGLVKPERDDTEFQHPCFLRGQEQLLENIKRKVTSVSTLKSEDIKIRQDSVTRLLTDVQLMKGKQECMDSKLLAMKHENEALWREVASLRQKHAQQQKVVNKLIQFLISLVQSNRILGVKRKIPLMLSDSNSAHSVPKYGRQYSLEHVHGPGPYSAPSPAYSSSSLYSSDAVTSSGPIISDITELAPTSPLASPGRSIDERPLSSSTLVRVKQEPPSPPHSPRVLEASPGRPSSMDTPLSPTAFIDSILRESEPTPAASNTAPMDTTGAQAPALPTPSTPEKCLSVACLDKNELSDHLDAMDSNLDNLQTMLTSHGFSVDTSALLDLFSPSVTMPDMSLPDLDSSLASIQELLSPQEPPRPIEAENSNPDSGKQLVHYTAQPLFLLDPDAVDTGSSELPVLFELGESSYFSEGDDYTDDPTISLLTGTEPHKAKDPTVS

[13] = target: Dual specificity tyrosine-phosphorylation-regulated kinase 1A (Rattus norvegicus, UniProt Q63470); assay type: biochemical, Homo sapiens
[14] = A cytotoxicity screen of small molecule inhibitors of the PhoP region in Salmonella typhi identified in the primary screen. [Related pubchem assays: 1850, 1864, 1985 ]; assay type: functional
[15] = target: T5, Short transient receptor potential channel 4; experiment: mouse TRPC4 channel inhibitors, dose response, cell-based, HEK293 TRPC4/mu-opioid, Fluo-4 calcium (AID 434942); assay type: functional;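 note: potency of inhibitors blocking the TRPC4 calcium response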
[16] = NIH-3T3 fibroblast cytotoxicity, dose response, cytotoxicity control, cell-based, fluorescence, Alamar Blue, secondary assay (AID 2327); assay type: functional;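 note: NIH-3T3 mouse fibroblasts cultured with fluconazole at 8 µg/mL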
[17] = C. albicans growth with fluconazole, confirmation, fluorescence, retest (AID 2467); assay type: functional, cell-based

Chain of Nonstructural protein 1 (Q194T2 whole entry): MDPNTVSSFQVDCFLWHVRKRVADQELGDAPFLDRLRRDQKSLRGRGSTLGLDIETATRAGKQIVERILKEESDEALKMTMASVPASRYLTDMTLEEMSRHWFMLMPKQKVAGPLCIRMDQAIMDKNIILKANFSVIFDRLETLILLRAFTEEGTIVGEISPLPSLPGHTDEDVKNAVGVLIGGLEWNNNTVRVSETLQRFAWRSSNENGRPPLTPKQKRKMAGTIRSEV

COc1ccc(S(=O)(=O)NCCc2csc(-c3cccnc3)n2)cc1
AC50 (HEK293): 144 µM (active)

CCOC(=O)C1=C(C)N=C2c3ccccc3C(=O)C2C1c1ccc(C)cc1 (stereo not drawn)
IC50 (Nonstructural protein 1): > 100 µM (active) | AC50 (Cytochrome P450 3A4): inconclusive

Cc1ccc(C(=O)OCC(=O)c2ccc(CC(=O)N3CCOCC3)s2)c(C)c1
IC50 [1]: 4.73 µM (active)

O=C(N/N=C1\CCCc2c1[nH]c1ccc(Cl)cc21)c1ccncc1
EC50 [2]: 11.1 µM (active) | EC50 [3]: 25.8 µM (active) | EC50 [4]: 10.3 µM (active) | CC50 [5]: 9.43 µM (active) | IC50 (cells): 0.6 µM (active)

CCCCCCCCC/C(=N\O)c1ccccn1
EC50 [6]: 1.97 µM (active) | EC50 [7]: > 30 µM (not active) | AC50 [8]: 4.09 µM (active)

CC(/C=N/NC(=O)c1cc(-c2ccncc2)nc2ccccc12)=C\c1ccco1
AC50 [9]: 2.4 µM (active) | IC50 [10]: 9.98 µM (active)

CC(=O)OCC(=O)[C@@]1(OC(C)=O)[C@H](C)C[C@H]2[C@@H]3C[C@H](F)C4=CC(=O)C=C[C@@]4(C)[C@]3(F)[C@H](O)C[C@@]21C
AC50 (Cytochrome P450 1A2): 12.6 µM (inconclusive) | AC50 (Cytochrome P450 3A4): inconclusive

O=C1C2C3C=CC(C3)C2C(=O)N1CN(Cc1ccccc1)CN1C(=O)C2C3C=CC(C3)C2C1=O (stereo not drawn)
AC50 [8]: 17.4 µM (active)

COc1ccc(CCN2C(=O)C=CC2=O)cc1OC
AC50 [8]: 3.1 µM (active)

COc1cccc(CN2CCNC(=O)C2CC(=O)N(C)CCc2ccccn2)c1OC (stereo not drawn)
EC50 [11]: 6.68 µM (active)

CSc1nc2cc(S(=O)(=O)N3CCCCC3)ccc2s1
AC50 (Cytochrome P450 3A4): inconclusive

COc1ccc(CCN(C)C(=O)C2CCCN(C3CCN(Cc4ccccc4)CC3)C2)cc1OC (stereo not drawn)
EC50 [11]: 1.19 µM (active)

CC(C)(C)OC(=O)N1Cc2ccccc2C[C@H]1C(=O)NCC(=O)Nc1ccc2c(c1)OCCO2
EC50 [12]: 0.755 µM (active) | AC50 (HEK293): 1.4 µM (active)

C(=N\Nc1[nH]cnc2ncnc1-2)/c1cccs1
AC50 [13]: 5.83 µM (active)

O=C(CSc1nccc(O)n1)N1N=C2/C(=C/c3ccco3)CCCC2C1c1ccco1 (stereo not drawn)
IC50 [1]: 13 µM (active)

CN(C)CC1Oc2ccccc2OC1(O)c1ccccc1 (stereo not drawn)
AC50 [8]: 2.52 µM (active)

O=C(O)/C=C/c1cccc(NC(=O)Nc2ccc([N+](=O)[O-])cc2)c1
AC50 [13]: 5.42 µM (active)

CCc1ccccc1NC(=O)COc1ccc2oc(-c3ccc(OC)cc3)cc(=O)c2c1
IC50 [1]: 8.65 µM (active)

N#Cc1ccccc1S(=O)(=O)N1CCN(C(=O)C2COc3ccccc3O2)CC1 (stereo not drawn)
IC50 [1]: 3.54 µM (active)

CC(C)OC(=O)C(C)(C)Oc1ccc(C(=O)c2ccc(Cl)cc2)cc1 [FENOFIBRATE]
AC50 (Cytochrome P450 3A4): inconclusive

O=C(c1cc(C(F)(F)F)cc(C(F)(F)F)c1)N1CCC2(CC1)CCN(c1ccncc1)CC2
AC50 (Cytochrome P450 1A2): 25.1 µM (inconclusive) | AC50 (Cytochrome P450 3A4): inconclusive

CCc1nccc2c1[nH]c1ccccc12
EC50 [14]: > 50 µM (active) | EC50 [15]: 2.99 µM (active) | AC50 [13]: 5.67 µM (active)

Nc1ncnc(Sc2ncccn2)c1[N+](=O)[O-]
EC50 [16]: 7.47 µM (inconclusive) | EC50 [17]: 1 µM (active) | AC50 [9]: 11.7 µM (active)
